Data: article PMC12332157, “A preclinical study on the influence of linkers in [^68Ga]Ga-NOTA-X-RM26 radiotracers for PET imaging of GRPR expression” (EJNMMI Research, 2025)
Starred links: 1 amine or outer side, 2 acyl side, 3 side chain; linkers in the order of their positions; H or OH if unused. Non-standard residues stand in square brackets, D forms with d. Residues, ends and D or L forms follow the SMILES beside them. *: point of attachment. NOTA = O=C(O)CN1CCN(CC(=O)O)CCN(CC(=O)*)CC1; Sta = CC(C)C[C@H](N)[C@@H](O)CC(=O)O; X2 = O=C(COc1cccc(CN[*:1])c1)[*:2]

Test system: PC-3 xenografts
Experiment: PET/CT imaging of mice bearing PC-3 xenografts
Format: in vivo
Settings: 2 h post injection, 100 pmol i.v.
Method: For PET/CT imaging, animals bearing PC-3 xenografts were used. The animals received a single intravenous injection of the corresponding ^68Ga-radiolabeled peptide (100 pmol, 1.2 MBq) and 2 h post injection they were euthanized using CO2. For image acquisition, Nano PET 3T (PET/MRI) and nanoScan (SPECT/CT) (Mediso Medical Imaging Systems, Budapest, Hungary) tomographs were used. Reconstruction of the PET scans was conducted using Nucline nanoScan 3.04.014.0000 software. CT data were reconstructed using Filter Back Projection in Nucline 2.03 Software (Mediso Medical Imaging Systems Ltd., Budapest, Hungary). For their fusion, Nucline 2.03 Software was used, and PET images are presented as maximum intensity projections (MIP) with an equivalent color scale.

CC(=O)N[C@@H](CCCCNC(=O)CN1CCN(CC(=O)O)CCN(CC(=O)O)CC1)C(=O)NCc1cccc(OCC(=O)N[C@H](Cc2ccccc2)C(=O)N[C@@H](CCC(N)=O)C(=O)N[C@@H](Cc2c[nH]c3ccccc23)C(=O)N[C@@H](C)C(=O)N[C@H](C(=O)NCC(=O)N[C@@H](Cc2c[nH]cn2)C(=O)N[C@@H](CC(C)C)[C@@H](O)CC(=O)N[C@@H](CC(C)C)C(N)=O)C(C)C)c1 [NOTA-mMA-RM26] (Ac-K(NOTA)[X2][dF]QWAVGH[Sta]L-NH2)
uptake in PC-3 tumors on PET images: lower uptake
